Test results: patent publication US8093286B2, “Methods for treatment with bucindolol based on genetic targeting” (The Regents of the University of Colorado, a body corporate, priority 2004, dated 2012)
Entries after “also recorded” stand apart in the source; their conditions may differ. Structures can show the parent of a compound that is named as a salt.

Columns and labels:
β1-Arg389 receptor [1] = molecular target: T1, β1-Arg389 receptor (Homo sapiens, UniProt P08588, G389R); test: norepinephrine-stimulated cAMP accumulation in stably transfected CHW cells (functional antagonism); type: cell-based
T1 construct: expressed in transfected cells
Protocol: (§1) Chinese hamster fibroblasts (CHW cells) were stably transfected with the human Arg389 and Gly389 cDNAs as previously described (Mason et al., 1999). Lines with equivalent levels of expression as determined by radioligand binding were studied to ascertain the antagonist effect of bucindolol on norepinephrine stimulated cAMP accumulation. Cells in monolayers were treated with 10 μM norepinephrine in the absence and presence of various concentrations of bucindolol for 20 min at 37° C. and [^3H]cAMP isolated by column chromatography (Salomon, 1991).
(§2) Chinese hamster fibroblasts were stably transfected using constructs previously described so as to separately express the human β1-Arg389 or β1-Gly389 receptors. β1AR expression, and affinity for bucindolol, were determined by radioligand binding studies with ^125I-cyanopindolol (125I-CYP), using 1 μM propranolol to define nonspecific binding as described. Whole cell cAMP accumulation studies were carried out by the [^3H]-adenine method using two lines with equivalent expression levels of the two receptors as indicated. Attached cells were exposed to vehicle (basal), 10 μM norepinephrine or 10 uM norepinephrine with the indicated concentrations of bucindolol for 15 min at 37° C.

β1-Gly389 receptor [2] = molecular target: T2, β1-Gly389 receptor (Homo sapiens, UniProt P08588); test: as above; type: cell-based
T2 construct: expressed in transfected cells
Protocol: as §1, §2

β1-Arg389 receptor [3] = molecular target: T1, β1-Arg389 receptor; test: 125I-cyanopindolol competition binding in transfected cells; conditions: 125I-CYP competition, n=3; read-out: affinity for bucindolol (pKi) (converted)
Protocol: as §2

β1-Gly389 receptor [4] = molecular target: T2, β1-Gly389 receptor; test: as above; conditions: 125I-CYP competition, n=3; read-out: affinity for bucindolol (pKi) (converted)
Protocol: as §2

[5] = BEST trial, peripheral venous norepinephrine and haemodynamic changes; type: in vivo, human
Protocol: (§3) Because of an initial delay in setting up the procedures, collection of blood samples for norepinephrine in all randomized patients began 6 months after trial initiation.
(§4) Peripheral venous NE samples were drawn at baseline, 3 and 12 months by inserting a 21 gauge butterfly needle into an arm vein and placing the subject in a quiet room in a supine position for 30 minutes. The initial 3 ml of blood was discarded, and then 5 ml of blood was withdrawn and immediately transferred to pre-chilled 5 ml tubes containing EDTA. Within 30 min plasma was separated and frozen at −70° C. Sites shipped samples on dry ice to a central laboratory (LabCorp, Raritan, N.J.) every 3 mo, where the samples were stored at −85° C. and assayed within 3 weeks. NE was measured by HPLC-electrochemical detection using the Bio-Rad HPLC method (Bio-Rad Laboratories Hercules, Calif.). Quality control included re-measuring all samples with initial values of <200 pg/ml or >2000 pg/ml, from the 2nd stored tube; and routinely (every 20 samples) measuring known amounts.
(§5) Means and standard deviations (SD) for continuous data, and proportions or percentages for categorical data are presented. T-tests or Wilcoxon rank sum tests were used for continuous data, and chi-square or Fisher's exact test for categorical data. An alpha level of 0.05 (2 tailed, unadjusted) was used to indicate statistical significance.

[6] = tested on: systemic venous norepinephrine; test: as above; type: in vivo, human; conditions: for NE change @ 3 mos, mean ± SD: Bucindolol Inter subgroup (Δ NE −244.5, ≦ +145), hydrochloride
Protocol: as §3, §4, §5

[7] = tested on: nonfailing human right ventricular trabeculae; test: contractile response of isolated right ventricular trabeculae from nonfailing human hearts; conditions: with and without forskolin
Protocol: Nonfailing hearts were obtained from local potential organ donors whose hearts were not transplanted because of physical or ABO blood type incompatibility. Failing hearts were from patients with end-stage heart failure due to ischemic or non-ischemic dilated cardiomyopathies who underwent cardiac transplantation. The demographic characteristics of the hearts are provided in Results. The contractile response of isolated, field stimulated, human trabeculae was assessed as previously described {1755; a-c}. Trabeculae of uniform size (1 to 2×6 to 8 mm) were mounted in 80 ml muscle bath chambers in Tyrode's solution at pH 7.45 bubbled with 95% O2-5% CO2 at 36^0. After equilibration, a tension of 75% of Lmax was applied to each individual trabeculum. Field-stimulation by a 5-ms pulse at 10% above threshold was then applied, and after equilibration full dose-response curves to isoproterenol, bucindolol or xamoterol were performed using the indicated concentrations and application of increasing doses every 5 minutes. In experiments in which forskolin was used to enhance signal transduction {e,f}, 10^−6 M of this adenylyl cyclase activator was applied to the tissue baths 15-20 minutes prior to the performance of dose-response curves, and allowed to achieve stability of tension response. Systolic tension at each dose was calculated as the stimulated tension in mN/mm^2 minus baseline tension. The maximum tension, concentration of isoproterenol that produced 50% of the maximum developed tension (EC50) and curve slope were computed by nonlinear repeated measures analysis of covariance. […] Statistical methods were employed as described in Examples 3 and 4.

[8] = tested on: patients with Class III/IV heart failure; conditions: cited from earlier work
[9] = bucindolol alone up to 10 μM, hydrochloride

T1 sequence (P08588 whole entry G389R): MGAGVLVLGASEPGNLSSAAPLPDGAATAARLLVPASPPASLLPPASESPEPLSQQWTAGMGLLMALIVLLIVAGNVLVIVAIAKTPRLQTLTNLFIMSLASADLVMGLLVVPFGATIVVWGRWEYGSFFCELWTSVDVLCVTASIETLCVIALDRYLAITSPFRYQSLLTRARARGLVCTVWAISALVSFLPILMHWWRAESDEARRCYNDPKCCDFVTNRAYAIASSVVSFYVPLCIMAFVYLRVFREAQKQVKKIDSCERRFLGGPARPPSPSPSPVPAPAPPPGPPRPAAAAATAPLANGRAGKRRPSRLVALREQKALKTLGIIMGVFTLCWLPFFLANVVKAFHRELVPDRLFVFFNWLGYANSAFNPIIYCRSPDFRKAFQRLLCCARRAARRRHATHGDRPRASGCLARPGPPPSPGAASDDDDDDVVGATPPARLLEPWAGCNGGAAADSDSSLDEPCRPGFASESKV
T2 sequence (P08588 whole entry): as the sequence (P08588 whole entry G389R) above, with R389G counted along it

CC(C)(Cc1c[nH]c2ccccc12)NCC(O)COc1ccccc1C#N (centres unmarked) [bucindolol, (2-{2-hydroxy-3{{2-(3-indolyl)-1,1-dimethylethyl}amino}propoxy}-benzonitrile hydrochloride)]
inhibition at 0.1 µM (β1-Arg389 receptor [1]; 0.1 μM bucindolol, read-out: inhibition of the Arg389 cAMP response): ~80% | maximal decrease of cAMP (β1-Arg389 receptor [1]; 10 μM norepinephrine + bucindolol, Arg389 cells, N=4): 435 ± 80 fmol/mL | stimulation of cAMP by bucindolol alone (intrinsic sympathomimetic activity) (β1-Arg389 receptor [1]; [9]): no stimulation of cAMP; also recorded: no evidence for intrinsic sympathomimetic activity | maximal decrease of cAMP (β1-Gly389 receptor [2]; 10 μM norepinephrine + bucindolol, Gly389 cells, N=4): 115 ± 23 fmol/mL | stimulation of cAMP by bucindolol alone (intrinsic sympathomimetic activity) (β1-Gly389 receptor [2]; [9]): no stimulation of cAMP; also recorded: no evidence for intrinsic sympathomimetic activity | Ki (β1-Arg389 receptor [3]): 0.251 nM | Ki (β1-Gly389 receptor [4]): 0.251 nM | Change in LVEF @ 12 mos ([5]; Bucindolol Incr subgroup): 7.1 ± 8.8 EFU | Change in LVEF @ 12 mos ([5]; Bucindolol Inter subgroup): 7.3 ± 10.4 EFU | Change in LVEF @ 12 mos ([5]; Bucindolol Redxn subgroup): 8.8 ± 9.2 EFU | decrease in norepinephrine relative to changes in the placebo group ([6]; 3 months): 19% | decrease in norepinephrine relative to changes in the placebo group ([6]; 12 months): 13% | average decrease in norepinephrine at 3 months ([6]; 153 bucindolol subjects at higher mortality risk with norepinephrine reduction): 529 pg/mL | Change in SBP @ 12 mos ([6]; Bucindolol Incr subgroup): −0.9 ± 16.8 mm Hg | HR (heart rate) change @ 12 mos ([6]; Bucindolol Incr subgroup): −8.1 ± 14.6 BPM | Change in LVEF @ 3 mos ([6]; Bucindolol Inter subgroup): 5.7 ± 7.9 EFU | Change in SBP @ 3 mos ([6]; Bucindolol Inter subgroup): −0.5 ± 15.7 mm Hg | Change in SBP @ 12 mos ([6]; Bucindolol Inter subgroup): 0.7 ± 18.0 mm Hg | HR (heart rate) change @ 3 mos ([6]; Bucindolol Inter subgroup): −9.7 ± 12.4 BPM | HR (heart rate) change @ 12 mos ([6]; Bucindolol Inter subgroup): −7.9 ± 13.5 BPM | NE change @ 3 mos, mean ± SD ([6]; n = 551): -44 pg/mL | NE change @ 3 mos, mean ± SD ([6]; n = 551, listed as Bucindolol): -44 ± 103 pg/mL | NE change @ 12 mos, mean ± SD ([6]; Bucindolol Inter subgroup, n = 551): 17.5 ± 216 pg/mL | Change in SBP @ 3 mos ([6]; Bucindolol Redxn subgroup): −0.7 ± 18.2 mm Hg | Change in SBP @ 12 mos ([6]; Bucindolol Redxn subgroup): 2.7 ± 20.1 mm Hg | proportion of bucindolol-treated patients with marked norepinephrine reduction at 3 months ([6]; NE reduction ≧244.5 pg/ml): 18% | average reduction in norepinephrine at 3 months (SEM) ([6]; α2c DEL 322-325 carriers): 153 ± 57 pg/mL | average reduction in norepinephrine at 3 months (SEM) ([6]; α2c WT/WT patients): 50 ± 13 pg/mL | intrinsic sympathomimetic activity (increase in force) [7]: no evidence of ISA | HF Hospitalization hazard ratio, bucindolol vs placebo ([8]; BEST entire cohort (n = 2708)): 0.78; 1045 Ev | Mortality + HF Hospitalization hazard ratio, bucindolol vs placebo ([8]; BEST entire cohort (n = 2708)): 0.81; 1421 Ev | reduction in all-cause mortality ([8]; BEST entire cohort): 10% | reduction in mortality or heart failure hospitalization ([8]; BEST entire cohort): 19% | reduction in event rate (death or heart failure hospitalization) ([8]; Class III patients, overall): 22% | increase in combined endpoint of death or heart failure hospitalization ([8]; Class IV patients, first 6 months of treatment): 1.7 fold
